Measurements reported in US8604059B2, “Thioxanthene derivatives for the treatment of infectious diseases” (BKG Pharma APS, priority 2009, dated 2013).
In brackets after ≈: the same amount, converted by molar mass. Several values for one entry are separate records, joined by “and”; a condition that tells them apart may be missing. Equal entries are not always repeated. Where two headings read alike, the source gives them in different places.

What was measured:
[1] = system: Multiresistant clinical isolates of S. aureus and S. epidermidis; experiment: Maximal reversal of resistance and synergistic effect (Table 4b); format: cell-based; conditions: for MIC / MIC alone: antibiotic alone, ten strains in each group; for MIC / MIC plus compound 1 0.60 ug/ml / MIC compound 2 0.98 ug/ml / MIC plus compound 3 0.30 ug/ml / MIC plus compound 4 0.75 ug/ml / MIC alone: median; for Fold enhanced, compound 1 0.60 ug/ml: enhancement of antibiotic by compound 1 at 0.60 ug/ml; for Fold enhanced, compound 2 0.98 ug/ml: enhancement of antibiotic by compound 2 at 0.98 ug/ml; for Fold enhanced, compound 3 0.30 ug/ml: enhancement of antibiotic by compound 3 at 0.30 ug/ml; for Fold enhanced, compound 4 0.75 ug/ml: enhancement of antibiotic by compound 4 at 0.75 ug/ml; for MIC plus compound 1 0.60 ug/ml: MIC of antibiotic in presence of compound 1 at 0.60 ug/ml; for MIC compound 2 0.98 ug/ml: MIC of antibiotic in presence of compound 2 at 0.98 ug/ml; for MIC plus compound 3 0.30 ug/ml: MIC of antibiotic in presence of compound 3 at 0.30 ug/ml; for MIC plus compound 4 0.75 ug/ml: MIC of antibiotic in presence of compound 4 at 0.75 ug/ml
Procedure: (§1) The maximal obtained reversal of resistance and synergistic effect was tested as previously described.
Strains: Multiresistant clinical isolates of S. aureus and S. epidermidis, Ten strains in each group.

[2] = system: Multiresistant clinical isolates E. coli; experiment: Maximal reversal of resistance and synergistic effect (Table 4c); format: cell-based; conditions: for MIC: Escherichia coli; for MIC / MIC alone: antibiotic alone, ten strains; for MIC / MIC plus compound 1 1.0 ug/ml / MIC plus compound 2 2.0 ug/ml / MIC plus compound 3 0.6 ug/ml / MIC alone: median; for Fold enhanced, compound 1 1.0 ug/ml: enhancement of antibiotic by compound 1 at 1.0 ug/ml; for Fold enhanced, compound 2 2.0 ug/ml: enhancement of antibiotic by compound 2 at 2.0 ug/ml; for Fold enhanced, compound 3 0.6 ug/ml: enhancement of antibiotic by compound 3 at 0.6 ug/ml; for MIC plus compound 1 1.0 ug/ml: MIC of antibiotic in presence of compound 1 at 1.0 ug/ml; for MIC plus compound 2 2.0 ug/ml: MIC of antibiotic in presence of compound 2 at 2.0 ug/ml; for MIC plus compound 3 0.6 ug/ml: MIC of antibiotic in presence of compound 3 at 0.6 ug/ml
Procedure: as §1
Strains: Multiresistant clinical isolates E. coli, Ten strains in each group.

E. faecalis = experiment: MIC, microdilution broth, multiresistant clinical isolates (Table 1A); format: cell-based; conditions: Enterococcus faecalis; ten multiresistant clinical isolates; read-out: Median MIC E. faecalis
Procedure: (§2) Cell growth was tested using the Minimal Inhibitory Concentration (MIC) susceptibility tests by use of the microdilution broth method in accordance to the NCCLS Guidelines (NCCLS Guidelines, Methods for Dilution Antimicrobial Susceptibility Tests for Bacteria That Grow Aerobically; Approved Standard, Sixth Edition, Volume 23; Number 2). The minimum inhibitory concentration (MIC), is defined as the lowest concentration of drug which inhibits growth of the test organism, in the sense that no visible growth is detected (total inhibition of growth). In example 2, MIC of the compounds used on fungal microorgansims was determined from the IC90 measurements according to NCCLS Guidelines.
(§3) A log phase culture of bacteria was diluted with fresh pre-warmed Mueller-Hinton medium and adjusted to a defined OD at 600 nm in order to give a final concentration of 1×10^4-5 bacteria/ml medium. The bacterial culture was transferred to microtiter-plates and culture was added to each well. […] Trays were incubated at 37° C. by shaking in a robot analyzer, PowerWavex, software KC^4′ Kebo. Lab, Copenhagen, for 16 h and optical densities were measured at 600 nm during the incubation time in order to record growth curves. Wells containing bacterial culture without drug were used as controls to ensure correct inoculum size and bacterial growth during the incubation. Cultures were tested in order to detect contaminations. Each experiment was repeated in triplicate.
(§4) Ten strains in each test group.

E. faecium = experiment: as above; format: cell-based; conditions: Enterococcus faecium; ten multiresistant clinical isolates; read-out: Median MIC E. faecium
Procedure: as §2, §3, §4

E. coli = experiment: as above; format: cell-based; conditions: Escherichia coli; ten multiresistant clinical isolates; read-out: Median MIC E. coli
Procedure: as §2, §3, §4

S. aureus = experiment: as above; format: cell-based; conditions: Staphylococcus aureus; ten multiresistant clinical isolates; read-out: Median MIC S. aureus
Procedure: as §2, §3, §4

S. epidermidis = experiment: as above; format: cell-based; conditions: Staphylococcus epidermidis; ten multiresistant clinical isolates; read-out: Median MIC S. epidermidis
Procedure: as §2, §3, §4

[3] = system: S. aureus MRSA clinical isolates; experiment: FIC index, synergy with antibiotics (Table 4a); format: cell-based, Staphylococcus aureus; conditions: with Dicloxacillin; 8 MRSA; mean; compound at ¼ of MIC
Procedure: (§5) The effect of the compounds was tested according to the methods described in WO2005/105145. In brief, cell growth was tested using the MIC susceptibility tests by use of the microdilution broth method in accordance to the NCCLS Guidelines (NCCLS Guidelines, Methods for Dilution Antimicrobial Susceptibility Tests for Bacteria That Grow Aerobically; Approved Standard, Sixth Edition, Volume 23; Number 2).
(§6) The Fractional Inhibitory Concentration (FIC) index were calculated for each compound as described in WO2005/105145. Synergy was defined for Fractional Inhibitory Concentration (FIC) indices less than 0.5
Staphylococcus aureus: 8 (MRSA) in vivo-selected clinical isolates. Resistant to methicillin and beta-lactam antibiotics. Susceptible to teicoplanin chloramphenicol, fosfomycin, netilmicin and vancomycin.

[4] = system: E. faecalis MDR/VRE clinical isolates; experiment: FIC index, synergy with antibiotics (Table 4a); format: cell-based, Enterococcus faecalis; conditions: 8 MDR/VRE E. faecalis, mean, compound at ¼ of MIC
Procedure: as §5, §6
Enterococcus faecalis: 8 multidrug resistant in vivo-selected clinical isolates. […] Expressing change in the cell wall precursor target as a major resistance mechanism (VanA gene expression).

[5] = system: E. coli MDR clinical isolates; experiment: FIC index, synergy with antibiotics (Table 4a); format: cell-based; conditions: 8 MDR E. coli, mean, compound at ¼ of MIC
Procedure: as §5, §6
E. coli: 8 in vivo-selected multidrug resistant clinical isolates of E. coli. Resistant to tetracycline, beta-lactams, fluoroquinolones, chloramphenicol and aminoglycoside

Candida albicans = experiment: Synergy with fluconazole, broth microdilution NCCLS M27-A (Table 10); format: cell-based; conditions: Candida albicans
Procedure: The isolates were subcultured for 24 h on Sabouraud glucose agar before susceptibility testing. Broth microdilution tests were performed according to NCCLS document M27-A (Ref: National Commitee for Clinical Laboratory Standards. (1997). Reference Method for Broth Dilution Antifungal Susceptibility Testing of Yeasts: Approved Standard M27-A. NCCLS, Wayne, Pa.) Microtitre plates were read spectrophotometrically at 530 nm, after mixing the wells by pipetting to resuspend yeast sediments. […] The Fractional Inhibitory Concentration (FIC) was calculated for the anti-infective agent alone and in combination with compound 3 and 4 (see table 4) as described above. Synergy was defined as a FIC index of <0.5.

[6] = system: Enterococcus faecalis ENT 28 (VRE); experiment: Mouse peritonitis model, neutropenic NMRI mice, enhancing effect with linezolid; format: in vivo
Procedure: A multiresistant clinical isolate of Enterococcus faecalis ENT 28 (VRE) from human urine was used.
Female NMRI mice (age, approximately 6 to 8 weeks; weight, 30±2 g) were used for the mouse […] peritonitis model (as described below).
In order to detect any synergistic effect, infected mice were treated with sub-therapeutic doses of each test compound alone or a mixture of the two compounds.
Bacterial suspensions were prepared from fresh overnight cultures (made from frozen stock cultures) on 5% blood agar plates as described above. The inoculum for the mouse peritonitis model was prepared immediately before use and was adjusted at 540 nm of giving a density of approximately 10^7 CFU/ml. The size of the inoculum was determined by viability counting on 5% blood agar.
Neutropenia was introduced by pretreating the mice with cyclophosphamide (6 mg daily for three days). […] Antibiotic therapy was initiated just after inoculation. Linezolid and compound 3 was administered subcutaneously in the neck region in a volume of 0.5 ml per dose. 3 mice were in each treatment group. Inoculated untreated control mice were included in all trials. (Method reference: Erlandsdottir et al; Antimicrob Agents Chemother. 2001 April; 45(4):1078-85)
The effects of the various treatment regimens were determined during 5 h of treatment by evaluation of bacterial counts in the peritoneal fluid. After the mice were killed, peritoneal washes were performed by injecting 2 ml of sterile saline intraperitoneally, followed by massage of the abdomen and then opening of the peritoneum to collect the fluid. Peritoneal fluids were immediately diluted 10-fold in saline, from which 20 μl was plated onto 5% blood agar plates in spots, with subsequent counting of colonies after incubation overnight at 35° C. The lowest detection levels for bacterial counts in blood and peritoneal fluid were 50 and 250 CFU/ml, respectively.

[7] = treatment 0 and 2 hours, sampling 5 hours, sub-therapeutic doses as in Table 9, individual mice

Row | Compound | MIC [1] [µg/mL] | Fold enhanced, compound 1 0.60 ug/ml [1] | Fold enhanced, compound 2 0.98 ug/ml [1] | Fold enhanced, compound 3 0.30 ug/ml [1] | Fold enhanced, compound 4 0.75 ug/ml [1] | Fold enhanced, compound 1 1.0 ug/ml [2] | Fold enhanced, compound 2 2.0 ug/ml [2] | Fold enhanced, compound 3 0.6 ug/ml [2] | MIC plus compound 1 0.60 ug/ml [1] [µg/mL] | MIC compound 2 0.98 ug/ml [1] [µg/mL] | MIC plus compound 3 0.30 ug/ml [1] [µg/mL] | MIC plus compound 4 0.75 ug/ml [1] [µg/mL] | MIC alone [1] [µg/mL] | also measured
1 | CC1(C)S[C@@H]2[C@H](NC(=O)[C@H](N)c3ccccc3)C(=O)N2[C@H]1C(=O)O [Ampicillin] | 16 | 4 (4) | 4 (4) | 8 | 4 (4) | 8 | 4 | 16 |  |  |  |  |  | MIC [2]: 32 µg/mL
2 | CC1(C)S[C@@H]2[C@H](NC(=O)Cc3ccccc3)C(=O)N2[C@H]1C(=O)O [Benzylpenicillin] | 64 | 8 (8) | 8 (8) | 16 | 8 (8) |  |  |  |  |  |  |  |  | 
3 | Clc1ccc2c(c1)/C(=C/CCN1CCNCC1)c1ccccc1S2 [Compound 1, N-dealkyl-transclopenthixol] |  |  |  |  |  |  |  |  |  |  |  |  |  | MIC (E. faecalis): 0.6 µg/mL (≈ 1.68 µM); MIC (E. faecium): 0.6 µg/mL (≈ 1.68 µM); MIC (E. coli): 6 µg/mL (≈ 16.8 µM); MIC (S. aureus): 3.6 µg/mL (≈ 10.1 µM); MIC (S. epidermidis): 2.4 µg/mL (≈ 6.72 µM); Maximal reversal of resistance: concentration of compound ([2]; E. coli multiresistant isolates): 1.0 µg/mL; FIC index [3]: 0.28; FIC index ([4]; with Ciprofloxacin): 0.28; FIC index ([4]; with Dicloxacillin): 0.28; FIC index ([5]; with Ampicillin): 0.47; FIC index ([5]; with Ciprofloxacin): 0.47; FIC index ([5]; with Gentamycin): 0.47; FIC index ([5]; with Tetracycline): 0.47
4 | CC[C@H]1OC(=O)[C@H](C)[C@@H](O[C@H]2C[C@@](C)(OC)[C@@H](O)[C@H](C)O2)[C@H](C)[C@@H](O[C@@H]2O[C@H](C)C[C@H](N(C)C)[C@H]2O)[C@](C)(O)C[C@@H](C)C(=O)[C@H](C)[C@@H](O)[C@]1(C)O [Erythromycin] | 16 | 4 (4) | 4 (4) | 8 | 4 (4) |  |  |  |  |  |  |  |  | 
5 | OC(Cn1cncn1)(Cn1cncn1)c1ccc(F)cc1F [Fluconazole] |  |  |  |  |  |  |  |  |  |  |  |  |  | MIC (Candida albicans; Table 10A, fluconazole in presence of compound 3 at 0.25 μg/ml, read-out: MIC FL + comp 3 (0.25 μg/m1)): 4 µg/mL; MIC (Candida albicans; Table 10B (compound 4), fluconazole in presence of compound at 0.50 μg/ml, read-out: MIC FL + comp 3 (0.50 μg/ml)): 8 µg/mL; MIC (Candida albicans; read-out: MIC Fluconazole (FL)): 128 µg/mL
6 | CC(=O)NC[C@H]1CN(c2ccc(N3CCOCC3)c(F)c2)C(=O)O1 [Linezolid] |  |  |  |  |  |  |  |  |  |  |  |  |  | Effect on the infection / bacteria in mouse peritoneum ([6]; sub-therapeutic dose alone): no effect on the infection; score at sampling ([6]; treatment 0 and 2 hours, sampling 5 hours, Linezolid 1 mg/ml 0.5 ml, Compound 3 0.1 mg/ml 0.5, combination Linezolid 2 mg/ml (0.25 ml) and compound 3 0.2 mg/ml (0.25 ml), individual mice): 2 and 3 (2×); Cfu/ml peritoneum [6, 7]: 2.08E+09 Cfu/ml and 2.20E+09 Cfu/ml and 2.40E+09 Cfu/ml; log (cfu/ml) peritoneum [6, 7]: 9.32 log (cfu/ml) and 9.34 log (cfu/ml) and 9.38 log (cfu/ml)
7 | CCN1CCN(C(=O)N[C@@H](C(=O)N[C@@H]2C(=O)N3[C@@H]2SC(C)(C)[C@@H]3C(=O)O)c2ccccc2)C(=O)C1=O [Piperacillin] |  |  |  |  |  | 4 (4) | 4 (4) | 8 |  |  |  |  |  | MIC [2]: 16 µg/mL
8 | CN(C)[C@@H]1C(=O)C(C(N)=O)=C(O)[C@@]2(O)C(=O)C3=C(O)c4c(O)cccc4[C@@](C)(O)[C@H]3C[C@@H]12 [Tetracyclin] |  | 2 | 2 | 4 | 2 | 4 (4) | 4 (4) | 8 | 4 | 8 | 2 | 8 | 16 | MIC plus compound 1 1.0 ug/ml [2]: 4 (4) μg/ml; MIC plus compound 2 2.0 ug/ml [2]: 4 (4) μg/ml; MIC plus compound 3 0.6 ug/ml [2]: 2 µg/mL; MIC alone [2]: 16 µg/mL
9 | Dicloxacillin & Methicillin |  | 16 | 16 | 32 | 16 |  |  |  | 4 | 4 | 2 | 4 | 64 | 
10 | Gentamicin |  | 2 | 2 | 4 | 2 | 2 | 2 | 4 | 4 | 4 | 2 | 4 | 8 | MIC plus compound 1 1.0 ug/ml [2]: 4 µg/mL; MIC plus compound 2 2.0 ug/ml [2]: 4 µg/mL; MIC plus compound 3 0.6 ug/ml [2]: 2 µg/mL; MIC alone [2]: 8 µg/mL
